Results reported in ChEMBL document CHEMBL4304800, “C4-Phenylthio β-lactams: Effect of the chirality of the β-lactam ring on antimicrobial activity” (2019).
In brackets after ≈: the same amount, converted by molar mass.

Tests used:
Type in all cases: functional
[1] = tested on: Mycobacterium tuberculosis; experiment: Antitubercular activity against serine beta-lactamase producing Mycobacterium tuberculosis H37Rv after 14 days in presence of GAST/Fe medium by eleven fold serial dilution method; details: 336 h
[2] = tested on: Mycobacterium tuberculosis; experiment: Antitubercular activity against serine beta-lactamase producing Mycobacterium tuberculosis H37Rv after 14 days in presence of middlebrook 7H9/BSA medium by eleven fold serial dilution method; details: 336 h
Moraxella catarrhalis = experiment: Bactericidal activity against serine beta-lactamase producing Moraxella catarrhalis incubated in MH broth for 24 to 48 hrs by microbroth dilution method

| Structure (SMILES) | MIC99 [1] [µg/mL] | MIC99 [2] [µg/mL] | MBC (Moraxella catarrhalis) [µg/mL] | MIC (Moraxella catarrhalis) [µg/mL] |
| --- | --- | --- | --- | --- |
| COc1ccc(S[C@@H]2CC(=O)N2C(=O)N[C@@H](C)c2ccccc2)cc1 | 25 | 50 | 50 (≈ 140 µM) | 50 (≈ 140 µM) |
| COc1ccc(SC2CC(=O)N2)cc1 (racemic) |  | 100 | 200 (≈ 956 µM) | > 200 |
| C[C@H](NC(=O)N1C(=O)C[C@@H]1Sc1ccc(F)c(Cl)c1)c1ccccc1 | 1.5 | 25 | 25 (≈ 66 µM) | 25 (≈ 66 µM) |
| C[C@H](NC(=O)N1C(=O)C[C@@H]1Sc1ccccc1F)c1ccccc1 | 6.2 | 25 | 200 (≈ 581 µM) | 25 (≈ 72.6 µM) |
| O=C1CC(Sc2ccc(F)cc2F)N1C(=O)NCc1ccccc1 (racemic) |  | 100 | 1.6 (≈ 4.59 µM) | 1.6 (≈ 4.59 µM) |
| C[C@@H](NC(=O)N1C(=O)C[C@@H]1[Se]c1ccccc1)c1ccccc1 | 12.5 | 25 | 50 (≈ 134 µM) | 25 (≈ 67 µM) |
| C[C@@H](NC(=O)N1C(=O)C[C@@H]1Sc1ccc(F)cc1Cl)c1ccccc1 | 0.7 | 25 | 25 (≈ 66 µM) | 25 (≈ 66 µM) |
| C[C@@H](NC(=O)N1C(=O)C[C@@H]1Sc1ccc(F)cc1)c1ccccc1 | 12.5 | 50 | 25 (≈ 72.6 µM) | 25 (≈ 72.6 µM) |
| C[C@H](NC(=O)N1C(=O)C[C@H]1Sc1ccccc1F)c1ccccc1 | 12.5 | 50 | 50 (≈ 145 µM) | 50 (≈ 145 µM) |
| C[C@H](NC(=O)N1C(=O)C[C@@H]1[Se]c1ccccc1)c1ccccc1 | 6.2 | 25 | 50 (≈ 134 µM) | 25 (≈ 67 µM) |
| COc1ccccc1S[C@H]1CC(=O)N1C(=O)N[C@@H](C)c1ccccc1 | 6.2 | 25 | 50 (≈ 140 µM) | 50 (≈ 140 µM) |
| C[C@@H](NC(=O)N1C(=O)C[C@@H]1Sc1ccc(C(F)(F)F)cc1)c1ccccc1 |  | 100 | 200 (≈ 507 µM) | 200 (≈ 507 µM) |
| O=C1CC(Sc2ccc(F)cc2F)N1 (racemic) |  | 3.1 | 3.1 (≈ 14.4 µM) |  |
| O=C1CC(Sc2ccc(F)cc2Cl)N1 (racemic) |  | 25 |  |  |
| C[C@@H](NC(=O)N1C(=O)C[C@@H]1Sc1ccc(F)c(F)c1)c1ccccc1 | 0.7 | > 100 | 25 (≈ 69 µM) | 25 (≈ 69 µM) |
| C[C@@H](NC(=O)N1C(=O)C[C@H]1Sc1ccc(C(F)(F)F)cc1)c1ccccc1 |  | 100 | 200 (≈ 507 µM) | 200 (≈ 507 µM) |
| C[C@H](NC(=O)N1C(=O)C[C@H]1Sc1ccc(F)cc1Cl)c1ccccc1 | 1.5 | 37.5 | 200 (≈ 528 µM) | 200 (≈ 528 µM) |
| O=C1CC(Sc2ccc(F)cc2)N1C(=O)NCc1ccccc1 (racemic) |  | 6.2 |  |  |
| O=C1CC(Sc2ccccc2F)N1 (racemic) |  | 100 |  |  |
| O=C1CC([Se]c2ccccc2)N1C(=O)NCc1ccccc1 (racemic) |  | 25 | 12.5 (≈ 34.8 µM) | 12.5 (≈ 34.8 µM) |
| O=C1CC(Sc2ccc(C(F)(F)F)cc2)N1 (racemic) |  | 25 |  |  |
| C[C@H](NC(=O)N1C(=O)C[C@H]1Sc1ccc(C(F)(F)F)cc1)c1ccccc1 |  | 100 | 200 (≈ 507 µM) | 200 (≈ 507 µM) |
| COc1ccccc1SC1CC(=O)N1C(=O)NCc1ccccc1 (racemic) |  | 188 |  |  |
| C[C@H](NC(=O)N1C(=O)C[C@H]1Sc1ccc(F)cc1)c1ccccc1 | 12.5 | 50 | 50 (≈ 145 µM) | 50 (≈ 145 µM) |
| C[C@H](NC(=O)N1C(=O)C[C@H]1[Se]c1ccccc1)c1ccccc1 | 6.2 | 25 | 50 (≈ 134 µM) | 25 (≈ 67 µM) |
| O=C1CC(Sc2ccccc2F)N1C(=O)NCc1ccccc1 (racemic) |  | 25 |  |  |
| COc1ccccc1S[C@H]1CC(=O)N1C(=O)N[C@H](C)c1ccccc1 | 25 | 50 | 50 (≈ 140 µM) | 50 (≈ 140 µM) |

| Structure (SMILES) | MIC99 [1] [µg/mL] | MIC99 [2] [µg/mL] | MBC (Moraxella catarrhalis) [µg/mL] | MIC (Moraxella catarrhalis) [µg/mL] |
| --- | --- | --- | --- | --- |
| C[C@@H](NC(=O)N1C(=O)C[C@H]1Sc1ccccc1F)c1ccccc1 | 12.5 | 25 | 25 (≈ 72.6 µM) | 12.5 (≈ 36.3 µM) |
| C[C@H](NC(=O)N1C(=O)C[C@@H]1Sc1ccc(F)cc1Cl)c1ccccc1 | 1.5 | 25 | 50 (≈ 132 µM) | 50 (≈ 132 µM) |
| O=C1CC(Sc2ccc(F)c(Cl)c2)N1C(=O)NCc1ccccc1 (racemic) |  |  | 6.2 (≈ 17 µM) | 6.2 (≈ 17 µM) |
| C[C@@H](NC(=O)N1C(=O)C[C@H]1Sc1ccc(F)c(Cl)c1)c1ccccc1 | 1.5 | 25 | 25 (≈ 66 µM) | 25 (≈ 66 µM) |
| O=C1CC([Se]c2ccccc2)N1 (racemic) |  | 25 | 6.2 (≈ 27.4 µM) | 6.2 (≈ 27.4 µM) |
| O=C1CC(Sc2ccc(F)cc2)N1 (racemic) |  | > 100 |  |  |
| CC[C@H]1OC(=O)[C@H](C)[C@@H](O[C@H]2C[C@@](C)(OC)[C@@H](O)[C@H](C)O2)[C@H](C)[C@@H](O[C@@H]2O[C@H](C)C[C@H](N(C)C)[C@H]2O)[C@](C)(O)C[C@@H](C)CN(C)[C@H](C)[C@@H](O)[C@]1(C)O [AZITHROMYCIN] |  |  | 0.063 (≈ 0.0841 µM) | 0.125 (≈ 0.167 µM) |
| C[C@@H](NC(=O)N1C(=O)C[C@H]1Sc1ccc(F)cc1)c1ccccc1 | 25 | 50 | 25 (≈ 72.6 µM) | 25 (≈ 72.6 µM) |
| COc1ccc(S[C@H]2CC(=O)N2C(=O)N[C@H](C)c2ccccc2)cc1 | 25 | 100 | 50 (≈ 140 µM) | 50 (≈ 140 µM) |
| O=C1CC(Sc2ccc(F)c(F)c2)N1C(=O)NCc1ccccc1 (racemic) |  | 6.2 |  |  |
| C[C@@H](NC(=O)N1C(=O)C[C@@H]1Sc1ccc(F)c(Cl)c1)c1ccccc1 | 1.5 | 25 | 25 (≈ 66 µM) | 25 (≈ 66 µM) |
| C[C@H](NC(=O)N1C(=O)C[C@@H]1Sc1ccc(F)cc1F)c1ccccc1 | 0.7 | 12.5 | 12.5 (≈ 34.5 µM) | 12.5 (≈ 34.5 µM) |
| C[C@H](NC(=O)N1C(=O)C[C@H]1Sc1ccc(F)c(Cl)c1)c1ccccc1 | 1.5 | 25 | 200 (≈ 528 µM) | 200 (≈ 528 µM) |
| O=C1CC(Sc2ccc(F)c(Cl)c2)N1 (racemic) | 0.7 |  |  |  |
| COc1ccc(S[C@@H]2CC(=O)N2C(=O)N[C@H](C)c2ccccc2)cc1 | 25 | 100 | 50 (≈ 140 µM) | 50 (≈ 140 µM) |
| COc1ccccc1S[C@@H]1CC(=O)N1C(=O)N[C@@H](C)c1ccccc1 | 25 | 100 | 100 (≈ 281 µM) | 100 (≈ 281 µM) |
| COc1ccc(SC2CC(=O)N2C(=O)NCc2ccccc2)cc1 (racemic) |  | 125 |  |  |
| COc1ccccc1S[C@@H]1CC(=O)N1C(=O)N[C@H](C)c1ccccc1 | 25 | > 100 |  | > 200 |
| C[C@@H](NC(=O)N1C(=O)C[C@H]1Sc1ccc(F)cc1Cl)c1ccccc1 | 1.5 | 50 | 25 (≈ 66 µM) | 25 (≈ 66 µM) |
| C[C@@H](NC(=O)N1C(=O)C[C@@H]1Sc1ccccc1F)c1ccccc1 | 12.5 | 25 | 50 (≈ 145 µM) | 25 (≈ 72.6 µM) |
| O=C1CC(Sc2c(F)c(F)c(F)c(F)c2F)N1 (racemic) |  | > 100 |  |  |
| C[C@@H](NC(=O)N1C(=O)C[C@H]1[Se]c1ccccc1)c1ccccc1 | 12.5 | 25 | 50 (≈ 134 µM) | 25 (≈ 67 µM) |
| C[C@@H](NC(=O)N1C(=O)C[C@H]1Sc1ccc(F)c(F)c1)c1ccccc1 | 0.7 | ≥ 100 | 12.5 (≈ 34.5 µM) | 12.5 (≈ 34.5 µM) |
| COc1ccc(S[C@H]2CC(=O)N2C(=O)N[C@@H](C)c2ccccc2)cc1 | 25 | > 50 | 50 (≈ 140 µM) | 50 (≈ 140 µM) |
| C[C@H](NC(=O)N1C(=O)C[C@@H]1Sc1ccc(F)cc1)c1ccccc1 | 12.5 | 50 | 50 (≈ 145 µM) | 25 (≈ 72.6 µM) |
| COc1ccccc1SC1CC(=O)N1 (racemic) |  | > 250 |  |  |
